# According to US5556744A, “Methods and compositions for diagnosing and treating certain HIV infected patients” (The Trustees of the University of Pennsylvania, priority 1994, dated 1996):
# Experiments:
# Set-up in all cases: species or system human
# [1] = system: maternal HIV+ sera (antibodies); assay: RIA / ELISA binding of maternal HIV+ sera to gp120 and gp41 peptides (Example 3)
# Procedure, shortened: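 Maternal sera, diluted 1:50 and 1:500, were bound overnight at 4°C to peptides immobilized at 10 μg/ml (pH 9.6 carbonate) and blocked with 1% BSA. Read-out was ¹²⁵I-labelled anti-human IgG counts or HRP-TMB OD450. Signal with peptide minus without was expressed relative to seronegative serum.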
# [2] = system: sera samples (antibodies); assay: ELISA peptide-binding of maternal sera, MN strain peptides (Example 7); conditions: for % Bound, Non-Transmitter / No. of Sera Samples Bound, Non-Transmitter / % Bound, Transmitter / No. of Sera Samples Bound, Transmitter: n = 5; for Correlation of peptide binding with non-transmission (in words): Example 7
# Description: This example provides additional sera screens using peptides corresponding to sequences of the MN strain. The sera samples (5 transmitters and 5 non-transmitters) were obtained from the NIH and differ from those screened in the previous studies. Peptide binding was analyzed by ELISA as described in Example 3.
# [3] = system: maternal sera (antibodies); assay: ELISA peptide-binding of maternal sera (Example 6)
# Procedure, shortened: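 HIV-1 envelope peptides averaging 16 amino acids, covering external and transmembrane glycoprotein, were probed by ELISA. Third-trimester maternal sera, classed as transmitter or non-transmitter by child diagnosis, were each run on at least 40 peptides. Values give percent of sera binding a peptide.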
# [4] = Serum No. 1, Non-Transmission Group
# [5] = Serum No. 2, Non-Transmission Group
# [6] = Serum No. 3, Non-Transmission Group
# [7] = Serum No. 4, Transmission Group
# [8] = Serum No. 5, Transmission Group
# [9] = Serum No. 6, Non-Transmission Group
# [10] = Serum No. 7, Non-Transmission Group
# [11] = Serum No. 8, Non-Transmission Group
# [12] = Serum No. 9, Non-Transmission Group
# [13] = Serum No. 10, Transmission Group
# [14] = Serum No. 11, Non-Transmission Group
# [15] = Serum No. 12, Non-Transmission Group
# [16] = Serum No. 13, Transmission Group
# [17] = Serum No. 14, Transmission Group
# [18] = Serum No. 15, Transmission Group
# [19] = Serum No. 16, Non-Transmission Group
# [20] = Serum No. 17, Non-Transmission Group
# [21] = Serum No. 18, Non-Transmission Group
# [22] = Serum No. 19, Transmission Group
# [23] = Serum No. 20, Non-Transmission Group
Substance,"Binding of maternal HIV+ serum to peptide (sera/NHS ratio) [1, 4]","Binding of maternal HIV+ serum to peptide (sera/NHS ratio) [1, 5]","Binding of maternal HIV+ serum to peptide (sera/NHS ratio) [1, 6]","Binding of maternal HIV+ serum to peptide (sera/NHS ratio) [1, 7]","Binding of maternal HIV+ serum to peptide (sera/NHS ratio) [1, 8]","Binding of maternal HIV+ serum to peptide (sera/NHS ratio) [1, 9]","Binding of maternal HIV+ serum to peptide (sera/NHS ratio) [1, 10]","Binding of maternal HIV+ serum to peptide (sera/NHS ratio) [1, 11]","Binding of maternal HIV+ serum to peptide (sera/NHS ratio) [1, 12]","Binding of maternal HIV+ serum to peptide (sera/NHS ratio) [1, 13]","Binding of maternal HIV+ serum to peptide (sera/NHS ratio) [1, 14]","Binding of maternal HIV+ serum to peptide (sera/NHS ratio) [1, 15]","Binding of maternal HIV+ serum to peptide (sera/NHS ratio) [1, 16]","Binding of maternal HIV+ serum to peptide (sera/NHS ratio) [1, 17]","Binding of maternal HIV+ serum to peptide (sera/NHS ratio) [1, 18]","Binding of maternal HIV+ serum to peptide (sera/NHS ratio) [1, 19]","% Bound, Non-Transmitter [2]","No. of Sera Samples Bound, Non-Transmitter [2]","% Bound, Transmitter [2]","No. of Sera Samples Bound, Transmitter [2]",also measured
ELDKWASLWNWFNITNWLWY [Peptide 53],"- (specific OD450 or cpm of sera sample binding to peptide divided by the specific OD450 or cpm of NHS sample binding to peptide, which value is less than 2)","- (specific OD450 or cpm of sera sample binding to peptide divided by the specific OD450 or cpm of NHS sample binding to peptide, which value is less than 2)","- (specific OD450 or cpm of sera sample binding to peptide divided by the specific OD450 or cpm of NHS sample binding to peptide, which value is less than 2)","- (specific OD450 or cpm of sera sample binding to peptide divided by the specific OD450 or cpm of NHS sample binding to peptide, which value is less than 2)","- (specific OD450 or cpm of sera sample binding to peptide divided by the specific OD450 or cpm of NHS sample binding to peptide, which value is less than 2)","- (specific OD450 or cpm of sera sample binding to peptide divided by the specific OD450 or cpm of NHS sample binding to peptide, which value is less than 2)",++ (which value is greater than 3),"- (specific OD450 or cpm of sera sample binding to peptide divided by the specific OD450 or cpm of NHS sample binding to peptide, which value is less than 2)","- (specific OD450 or cpm of sera sample binding to peptide divided by the specific OD450 or cpm of NHS sample binding to peptide, which value is less than 2)","- (specific OD450 or cpm of sera sample binding to peptide divided by the specific OD450 or cpm of NHS sample binding to peptide, which value is less than 2)","- (specific OD450 or cpm of sera sample binding to peptide divided by the specific OD450 or cpm of NHS sample binding to peptide, which value is less than 2)","- (specific OD450 or cpm of sera sample binding to peptide divided by the specific OD450 or cpm of NHS sample binding to peptide, which value is less than 2)","- (specific OD450 or cpm of sera sample binding to peptide divided by the specific OD450 or cpm of NHS sample binding to peptide, which value is less than 2)","- (specific OD450 or cpm of sera sample binding to peptide divided by the specific OD450 or cpm of NHS sample binding to peptide, which value is less than 2)","- (specific OD450 or cpm of sera sample binding to peptide divided by the specific OD450 or cpm of NHS sample binding to peptide, which value is less than 2)","- (specific OD450 or cpm of sera sample binding to peptide divided by the specific OD450 or cpm of NHS sample binding to peptide, which value is less than 2)",0%,0,0%,0,"Binding of maternal HIV+ serum to peptide (sera/NHS ratio) [1, 20]: + (which value is between 2 to 3); Binding of maternal HIV+ serum to peptide (sera/NHS ratio) [1, 21]: - (specific OD450 or cpm of sera sample binding to peptide divided by the specific OD450 or cpm of NHS sample binding to peptide, which value is less than 2); Binding of maternal HIV+ serum to peptide (sera/NHS ratio) [1, 22]: - (specific OD450 or cpm of sera sample binding to peptide divided by the specific OD450 or cpm of NHS sample binding to peptide, which value is less than 2); Binding of maternal HIV+ serum to peptide (sera/NHS ratio) [1, 23]: - (specific OD450 or cpm of sera sample binding to peptide divided by the specific OD450 or cpm of NHS sample binding to peptide, which value is less than 2); Number of Non-Transmitters which bound to peptide ([3]; Non-Transmitters, N = 12): 0; Percent of Non-Transmitters which bound to peptide ([3]; Non-Transmitters, N = 12): 0%; Number of Transmitters which bound to peptide ([3]; Transmitters, N = 4): 0; Percent of Transmitters which bound to peptide ([3]; Transmitters, N = 4): 0%"
"MN-16: gp41 peptide, amino acids 638-650, HIV strain MN, SEQ ID NO: 167",–,–,–,–,–,–,–,–,–,–,–,–,–,–,–,–,0%,0,0%,0,–
DTSGRLVHGFLAIIW [MN-8],–,–,–,–,–,–,–,–,–,–,–,–,–,–,–,–,80%,4,20%,1,Correlation of peptide binding with non-transmission (in words) [2]: selectively correlate with non-transmission
LRIVFAVLSVVNRVRQGYSP [Peptide 55],"- (specific OD450 or cpm of sera sample binding to peptide divided by the specific OD450 or cpm of NHS sample binding to peptide, which value is less than 2)","- (specific OD450 or cpm of sera sample binding to peptide divided by the specific OD450 or cpm of NHS sample binding to peptide, which value is less than 2)","- (specific OD450 or cpm of sera sample binding to peptide divided by the specific OD450 or cpm of NHS sample binding to peptide, which value is less than 2)","- (specific OD450 or cpm of sera sample binding to peptide divided by the specific OD450 or cpm of NHS sample binding to peptide, which value is less than 2)","- (specific OD450 or cpm of sera sample binding to peptide divided by the specific OD450 or cpm of NHS sample binding to peptide, which value is less than 2)","- (specific OD450 or cpm of sera sample binding to peptide divided by the specific OD450 or cpm of NHS sample binding to peptide, which value is less than 2)","- (specific OD450 or cpm of sera sample binding to peptide divided by the specific OD450 or cpm of NHS sample binding to peptide, which value is less than 2)","- (specific OD450 or cpm of sera sample binding to peptide divided by the specific OD450 or cpm of NHS sample binding to peptide, which value is less than 2)","- (specific OD450 or cpm of sera sample binding to peptide divided by the specific OD450 or cpm of NHS sample binding to peptide, which value is less than 2)","- (specific OD450 or cpm of sera sample binding to peptide divided by the specific OD450 or cpm of NHS sample binding to peptide, which value is less than 2)","- (specific OD450 or cpm of sera sample binding to peptide divided by the specific OD450 or cpm of NHS sample binding to peptide, which value is less than 2)","- (specific OD450 or cpm of sera sample binding to peptide divided by the specific OD450 or cpm of NHS sample binding to peptide, which value is less than 2)","- (specific OD450 or cpm of sera sample binding to peptide divided by the specific OD450 or cpm of NHS sample binding to peptide, which value is less than 2)","- (specific OD450 or cpm of sera sample binding to peptide divided by the specific OD450 or cpm of NHS sample binding to peptide, which value is less than 2)","- (specific OD450 or cpm of sera sample binding to peptide divided by the specific OD450 or cpm of NHS sample binding to peptide, which value is less than 2)","- (specific OD450 or cpm of sera sample binding to peptide divided by the specific OD450 or cpm of NHS sample binding to peptide, which value is less than 2)",0%,0,0%,0,"Binding of maternal HIV+ serum to peptide (sera/NHS ratio) [1, 20]: - (specific OD450 or cpm of sera sample binding to peptide divided by the specific OD450 or cpm of NHS sample binding to peptide, which value is less than 2); Binding of maternal HIV+ serum to peptide (sera/NHS ratio) [1, 21]: - (specific OD450 or cpm of sera sample binding to peptide divided by the specific OD450 or cpm of NHS sample binding to peptide, which value is less than 2); Binding of maternal HIV+ serum to peptide (sera/NHS ratio) [1, 22]: - (specific OD450 or cpm of sera sample binding to peptide divided by the specific OD450 or cpm of NHS sample binding to peptide, which value is less than 2); Binding of maternal HIV+ serum to peptide (sera/NHS ratio) [1, 23]: - (specific OD450 or cpm of sera sample binding to peptide divided by the specific OD450 or cpm of NHS sample binding to peptide, which value is less than 2)"
YIKIFIMIVGGLVG [MN-17],–,–,–,–,–,–,–,–,–,–,–,–,–,–,–,–,40%,2,0%,0,Correlation of peptide binding with non-transmission (in words) [2]: selectively correlate with non-transmission
"MN-13: gp41 peptide, amino acids 619-637, HIV strain MN, SEQ ID NO: 166",–,–,–,–,–,–,–,–,–,–,–,–,–,–,–,–,60%,3,0%,0,–
